The source of these data is a melting point compilation (Tetko et al.; mined from patent text by program, amines drawn as free bases though some values may be those of a salt).

`CCOC(=O)c1c[nH]c2c(-c3ccncc3)c(-c3ccc(F)cc3)nn2c1=O`: the melting point (usually the temperature of the solid-liquid transition) was > 250 °C.

`CCCn1c(=O)cc(Cl)n(CC#N)c1=O` yielded a melting point of 83 to 84 °C.

`COc1cccc(N(CC(=O)OC(C)(C)C)C(=O)CN2C(=O)c3ccccc3C2=O)c1` had a melting point of 148 °C. The figure for `CCc1cccc(C)c1CNc1nc(OC)cc2c1nc(C)n2C` is 106 to 107 °C; for `CC(C)NCC(O)COc1ccc(NC(=O)N(C)C)cc1` (stereo not given) it is 138 to 139 °C; for `CC(C)(C)c1cc(CNC2CCCCC2)c(O)c(C(C)(C)C)c1` it is 67 to 70 °C. The figure for `O=C(O)c1nc(-c2ccccc2Oc2ccc(F)cc2O)no1` is 127 to 128 °C.

In turn, `CCOC(=O)[C@H](O)[C@@H](NC(=O)OC(C)(C)C)c1ccc(C)cc1` displayed a melting point of 130 °C. The figure for `CCCCC1(C(=O)N[C@@H](Cc2ccc(NC(=O)c3c(Cl)cccc3Cl)cc2)C(=O)OC)CCCC1` is 193 to 196 °C. In the case of `CC(C)(Cl)Cn1ncc(Cl)c(Cl)c1=O`, the melting point lay in the range of 61 to 66 °C. With `S=c1[nH]c(=S)c2[nH]cnc2[nH]1` the figure was 196 to 200 °C; with `Cc1oc(-c2ccccc2)nc1CCNCc1ccc(C[C@@H](C(=O)O)n2cccc2)cc1`, 208 to 210 °C; with `Cc1ccc(-n2nc(Cl)cc2-c2ccc(S(C)(=O)=O)cc2)cc1F`, 160 to 162 °C.

`CCCCCCCCCCCCCCCCCCCCCCOc1ccc(C(=O)O)cc1` returned a melting point of 99 to 102 °C. With `O=C(O)c1c(C(F)(F)F)ccc(Cl)c1Cl` the figure was 88 to 89 °C; with `COc1cc(CC(=O)O)cc2c1C(=O)c1ccccc1CC2`, 189 to 199 °C; with `Cc1ccsc1CNC(=O)C(=O)NCCc1ccccn1`, 122 to 124 °C. `CN(C)C(=O)c1ccccc1CC(=O)Nc1cccc(/C=C/c2nc(C3CCC3)cs2)c1` yielded a melting point of 125 to 127 °C. With `COc1ccc(CNC2SC(=O)NC2=O)cc1` (stereo not given) the figure was 140 to 142 °C; with `Cc1ccnc2c1nc(-c1cccnc1N)n2-c1ccc(CC(=O)Nc2cccc(F)c2)cc1`, 241 to 243 °C.

As for `COC(=O)c1c(S(N)(=O)=O)c(C)nn1C`, the melting point is 174 to 176 °C. Consider `CCOC(=O)c1ccc(Cl)c(Cl)c1`, for which the melting point was in the range of 33 to 35 °C. The figure for `COC(=O)c1ncc(Cl)nc1Cl` is 60 to 63 °C; for `CCOC(=O)c1cc(C=O)cn1C` it is 75 to 76 °C.

`COc1cc2c(cc1OC)C(=O)C(CC=O)C2` (racemic) yielded a melting point of 122 °C.

`COc1c(Cl)ccc(-c2cc(N)c(Cl)c(C(=O)NOC3CCCCO3)n2)c1F` (stereo not given) came in with a melting point of 176 to 179 °C.

Turning to `CCOC(=O)C1C(=O)NC(=O)C(CCN(C)C)(c2cccc(OC)c2)C1CC` (stereo not given), the melting point is 160 to 162 °C. With `C=C(C)C(=O)NCc1ccc(S(=O)(=O)ON=C2c3ccccc3-c3ccccc32)cc1` the figure was 187 to 188 °C; with `O=[N+]([O-])c1ccc(Oc2ccc3c(c2)OCC(c2ccccc2)O3)nc1` (stereo not given), 163 to 170 °C. In turn, `Cc1cc(N2C=CNC2N)ccn1` (stereo not given) gave a melting point of 167 °C. The figure for `CC(=O)c1ccc(SCCCc2ccccc2)cc1` is 76 to 78 °C; for `O=C1NC(=O)C(Cc2ccc(OCc3nc(-c4ccccc4)cs3)cc2)S1` (stereo not given) it is 164 to 165 °C; for `CCOC(=O)C1=C(COCC2=CC(=O)N=N2)NC(C)=C(C(=O)OC)C1c1ccccc1Cl` (stereo not given) it is 207 °C. The figure for `NC(=O)c1ccccc1-c1ccc2ccc(SCc3ccccc3)nc2n1` is 144 to 145 °C; for `O=C(C=Cc1ccccc1)Nc1ccccc1NC(=O)C=Cc1ccccc1` it is 212 °C. With `CCOc1ccc(S(=O)(=O)N2CCN(C)CC2)cc1C=O` the figure was 107 to 108 °C; with `CCOC(=O)c1c(OCC)nsc1NC(=O)N(CC)CC`, 77 to 80 °C; with `CS(=O)CC(=O)c1cc(C(C)(C)C)c(O)c(C(C)(C)C)c1` (stereo not given), 144 to 145 °C. `C=CS(=O)(=O)C(C)(C)S(=O)(=O)C=C` yielded a melting point of 121 to 122 °C. The figure for `COCC(=O)OC(=C1C(=O)N(C(N)=O)c2cc(Cl)c(F)cc21)c1cccs1` is 199 to 200 °C; for `CC(=O)c1ccc2oc3nc(N)c(C(=O)O)cc3c(=O)c2c1` it is > 300 °C.

Regarding `N=C(Nc1ccc(Cl)cc1)NC1CC2C3CC4C2C4C13` (stereo not given), the melting point lay in the range of 170 to 171 °C.

As to `O=C(O)c1c(Cc2cc3c(cc2Cl)OCO3)c(-c2ccsc2)nn1CC1CCCCC1`, the melting point is 250 °C. The figure for `CCCCCCCCCCCCCCCCCCOC(=O)COc1ccc(C2C(=O)Oc3c(C)cc(C)cc32)cc1` (stereo not given) is 57 to 59 °C. `CC(=O)c1ccc(C=C(Cl)Cl)s1` registered a melting point of 81 to 85 °C. Consider `CCCCc1ncc(-c2cccc(C(=O)O)c2)n1Cc1ccccc1Cl`, for which the melting point lay within 200 to 202 °C. With `COc1cc(OC)c(S(=O)(=O)Cl)c(OC)c1` the figure was 126 to 129 °C; with `O=C(NCCc1ccc([N+](=O)[O-])cc1)C(F)(F)F`, 96 to 97 °C. With `NC(=O)NCc1ccc(CN(CC(=O)O)C(=O)[C@@H](CCCNC(N)=N[N+](=O)[O-])NC(=O)C(c2ccccc2)c2ccccc2)cc1` the figure was 78 to 81 °C; with `O=C1CC2CCC1C(Nc1ccc(Cl)cc1)C21CCCCC1` (stereo not given), 139 to 141 °C; with `CNC(=O)[C@@H]1CCC[C@@H]1Nc1nc(Nc2ccc3c(c2)CCN(CCOC)CC3)ncc1Cl` (relative stereo), 176 °C. `COc1ccc(CSC(C)(C)C2(c3ccc(F)cc3F)CO2)cc1` (stereo not given): the melting point lay in the range of 55 to 56 °C. The figure for `CC(C)C1(C)N=C(c2ncccc2C(=O)O)N(C#N)C1=O` (stereo not given) is 150 to 153 °C; for `CCOC(=O)C(Sc1ccc(O)cc1)c1ccc(Cl)cc1` (stereo not given) it is 63 °C; for `COc1ccc2c(c1)CCC(=O)NC2c1ccccc1` (stereo not given) it is 185 to 186 °C. With `O=[N+]([O-])c1ccc(-c2ccc3nncn3n2)cc1C(F)(F)F` the figure was 129 to 135 °C; with `c1ccc(Nc2ncc3ccncc3n2)cc1`, 161 °C; with `Cc1cccc(NC(=O)C2=C(O)c3ccc4ccccc4c3S(=O)(=O)N2C)n1`, 221 to 223 °C. With `N#Cc1ccc(N(Cc2ccc(OCc3ccccc3)cc2)n2cnnc2)cc1-c1ccc(F)cc1` the figure was 211 to 213 °C; with `CCCCCCCCCCCCCCCCCC(=O)OC1CC(C)(C)N(OC(C)=O)C(C)(C)C1`, 63 to 70 °C. `CNC(=NC#N)NCc1cccc(-c2csc(N=C(N)N)n2)n1`: the melting point fell in the range of 245 to 246 °C.

`O=c1cc(-c2nc[nH]n2)oc2ccccc12` came in with a melting point of 210 °C. `COC(=O)CC(Nc1ccccc1OC)c1ccc2ccccc2n1` (stereo not given): the melting point was 119 to 121 °C. In the case of `CC(C)CNC(=O)Nc1c(C(=O)c2ccccc2)[nH]c2cc(Cl)ccc12`, the melting point lay in the range of 235 to 238 °C.

Turning to `C=C(Nc1nc(-c2ccccc2)c(-c2nc3ccccc3c(=O)n2-c2ccc(Cl)cc2)s1)c1ccco1`, the melting point was 270 to 274 °C. The figure for `CC(=O)NC[C@@H]1C[C@H]1c1c(F)ccc2nn(C)cc12` (relative stereo) is 120 °C. The figure for `CCN(CC)c1nsc(N)c1C#N` is 87 to 88 °C; for `Cc1c(NC(=O)c2ccc(OCC3CCOC3)cc2)ccc2cc(CNCC(C)(C)C)cnc12` (stereo not given) it is 129 °C; for `COc1ccc2c(c1)c(Cc1cc(=O)n(-c3cccc(C)c3)[nH]1)c(C)n2C(=O)c1ccc(Cl)cc1` it is 120 to 122 °C. The figure for `O=C(O)CP(=O)(O)CCCCc1ccccc1` is 110 °C; for `COc1cc(C=CC(=O)CSc2ccccc2)ccc1O` it is 78 to 80 °C; for `CC1(C)Nc2c(Cl)cccc2NC1=O` it is 153 to 156 °C.

For `COc1ccc(C(=CC(=O)N2CCOCC2)c2ccc(O)cc2)cc1OC`, the melting point was in the range of 105 to 120 °C.

In turn, `CCCCc1cc2cccnc2[nH]1` came in with a melting point of 46 to 47 °C.

For the compound `CC(C)(C)CC(=O)NN1C(=O)C(NC(=O)Nc2cccc(N)c2)CC(c2ccccc2)CC1c1ccccc1` (stereo not given), the melting point is 195 to 205 °C. With `CC(C)(C)OC(=O)N1CCC[C@@H](Nc2nccc(-c3c(-c4cccc(C(N)=O)c4)nc4sccn34)n2)C1` the figure was 161 to 165 °C; with `CC(C)CC(NC(=O)C(Cc1ccccn1)NC(=O)C(Cc1cccc2ccccc12)NC(=O)OCc1ccccc1)C(O)CC(=O)NCCc1ccccn1` (mixture of isomers), 128 to 133 °C; with `COC(=O)CN1C(=S)CN=C(c2ccccc2Cl)c2ccccc21`, 183 to 184 °C. The figure for `O=C1c2ccccc2C(=O)N1c1nc(Cl)nc(Cl)n1` is 175 to 179 °C. The figure for `COc1ccc2oc3ccc(I)cc3c2c1C(=O)Nc1cccnc1` is 286 to 287 °C; for `Cn1cncc1C(O)(c1ccc(Cl)cc1)c1ccc2nc(-c3cccnc3)nc(-c3cccc(Cl)c3)c2c1` (stereo not given) it is 178 °C. In turn, `COc1ccc2c(c1)OC(c1ccc(Cl)cc1)CC2=O` (stereo not given) yielded a melting point of 97 to 99 °C. The figure for `CCOC1=N[C@@H](CSCC)C(=O)N[C@@H]1Cc1ccccc1` is 118 °C. The figure for `C[C@H]1[C@H](NC(=O)OC(C)(C)C)C(=O)N1OCc1ccccc1` is 78 °C; for `COCCNC(=O)c1ccc(C(=O)C=C(c2cc(Cl)cc(Cl)c2)C(F)(F)F)cc1` it is 150 to 153 °C; for `CS(=O)c1c2ccccc2c(C=O)c2ccccc12` (stereo not given) it is 182 to 184 °C. The figure for `CC(C)C(=O)N[C@H](CSSC[C@@H](NC(=O)C(C)C)C(=O)O)C(=O)O` is 135 to 137 °C; for `CC(C)(O)CNc1c([N+](=O)[O-])cnc2cccnc12` it is 184 to 186 °C.

Take `Cc1ccsc1C(=O)c1sc(Nc2ccc(-n3ccnc3)cc2)nc1N`: the melting point was > 300 °C. The figure for `COc1cc(N2CCOCC2)ccc1Nc1nc(Nc2ccc3c(c2)CCC(=O)CC3)ncc1Cl` is 212 to 215 °C.
